Data from the supplement of paper PMC10307832.

Assays:
Assay in all cases: relative viability (nuclei count vs DMSO), 5 days (fraction); higher = more cells survive
[1] = compound: C=C(c1ccc(C(=O)O)cc1)c1cc2c(cc1C)C(C)(C)CCC2(C)C [Bexarotene] + O=C(CCCCCCC(=O)Nc1ccccc1)NO [Vorinostat] (partner 1 µM)
How it was run: (§1)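 Each reported value is a median over duplicate plates. It expresses relative viability: treated-well nuclei count divided by vehicle-well nuclei count. Lung cancer cell lines in 1536-well plates were dosed by pin tool a day after seeding, alone with one drug or with a fixed anchor-drug dose plus five library-drug doses (not always all listed) in √10 steps, and nuclei were counted after 5 days.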

[2] = compound: C=C(c1ccc(C(=O)O)cc1)c1cc2c(cc1C)C(C)(C)CCC2(C)C [Bexarotene] + CS(=O)(=O)N1CCN(Cc2cc3nc(-c4cccc5[nH]ncc45)nc(N4CCOCC4)c3s2)CC1 [Pictilisib] (partner 1 µM)
How it was run: as §1

[3] = compound: C=C(c1ccc(C(=O)O)cc1)c1cc2c(cc1C)C(C)(C)CCC2(C)C [Bexarotene] + C[C@@H](Oc1cc(-c2cnn(C3CCNCC3)c2)cnc1N)c1c(Cl)ccc(F)c1Cl [Crizotinib] (partner 1 µM)
How it was run: as §1

[4] = compound: C=C(c1ccc(C(=O)O)cc1)c1cc2c(cc1C)C(C)(C)CCC2(C)C [Bexarotene] + Cc1nc(Nc2ncc(C(=O)Nc3c(C)cccc3Cl)s2)cc(N2CCN(CCO)CC2)n1 [Dasatinib] (partner 0.075 µM)
How it was run: as §1

Cell Line	relative viability ([1]; first compound 0.08 µM)	relative viability ([1]; first compound 0.253 µM)	relative viability ([1]; first compound 0.8 µM)	relative viability ([1]; first compound 2.53 µM)	relative viability ([1]; first compound 8 µM)	relative viability ([2]; first compound 0.08 µM)	relative viability ([2]; first compound 0.253 µM)	relative viability ([2]; first compound 0.8 µM)	relative viability ([2]; first compound 2.53 µM)	relative viability ([2]; first compound 8 µM)	relative viability ([3]; first compound 0.08 µM)	relative viability ([3]; first compound 0.253 µM)	relative viability ([3]; first compound 0.8 µM)	relative viability ([3]; first compound 2.53 µM)	relative viability ([3]; first compound 8 µM)	relative viability ([4]; first compound 0.08 µM)	relative viability ([4]; first compound 0.253 µM)	relative viability ([4]; first compound 0.8 µM)	relative viability ([4]; first compound 2.53 µM)	relative viability ([4]; first compound 8 µM)
201T	1.03	0.997	0.894	0.888	0.802	0.745	0.631	0.612	0.639	0.596	0.994	0.882	0.974	0.958	0.982	0.584	0.569	0.54	0.602	0.565
A549						0.59	0.476	0.571	0.507	0.48	0.736	0.793	0.65	0.669	0.594					
A-427	0.861	0.81	0.83	0.746	0.903	0.79	0.667	0.613	0.537	0.569	0.855	0.86	0.761	0.798	0.848	0.726	0.614	0.611	0.627	0.684
ABC-1	1.07	0.883	0.742		1.03	0.662	0.63	0.606	0.697	0.615	1.02	0.893	0.853	1.3	0.829	0.521	0.715	0.635	0.445	0.659
BEN	0.685	0.583	0.531	0.531	0.547	0.674	0.576	0.495	0.452	0.571	0.786	0.737	0.768	0.708	0.662	0.295	0.3	0.326	0.271	0.278
CAL-12T	0.723	0.837	0.887	0.529	0.655	0.333		0.396		0.361	0.73	0.608	0.466	0.564	0.489	0.296	0.327	0.332	0.302	0.271
COR-L23	0.54	0.539	0.411	0.426	0.337	0.735	0.759	0.5	0.67	0.52	0.747	0.633	0.605	0.498	0.558	0.498	0.557	0.503	0.606	0.203
COR-L 105	0.844	0.896	0.855	0.874	0.927	0.473	0.397	0.331	0.385	0.39	0.863	0.951	0.88	0.857	0.699	0.456	0.363	0.354	0.333	0.495
Calu-6						0.944	0.926	0.911	1.11	0.884	0.786	0.753	0.72	0.823	0.94					
ChaGo-K-1	0.848	0.886	0.844	0.818	0.918	0.902	0.679	0.875		0.801	1.19	1.23	1.15		1.15	0.568	0.604	0.638	0.661	0.593
EKVX	0.69	0.811	0.709	0.819	0.542	0.352	0.432	0.446	0.357	0.404	0.83	1.06	0.819	1.12	0.701	0.515	0.512	0.567	0.523	0.463
EMC-BAC-2	0.628	0.462	0.537		0.522	0.618	0.561	0.52	0.554	0.469	0.742	0.806	0.633	0.706	0.667	0.328	0.316	0.294	0.309	0.334
EPLC-272H	0.398	0.671	0.492	0.681	0.484	0.373	0.308	0.33	0.298	0.352	0.877	0.971	0.854	0.853	0.772	0.388	0.312	0.369	0.352	0.383
H3255	0.759	0.913	0.843	0.787	0.869	0.574	0.504	0.607	0.493	0.528	0.882	0.92	0.958	0.989	0.959	0.406	0.311	0.385	0.338	0.334
HARA	0.655	0.512	0.584	0.606	0.51	0.407	0.317	0.377	0.32	0.41	1.15	0.993	0.885	0.948	0.798	0.324	0.268	0.332	0.407	0.567
HCC-15	0.877	0.892	0.823	0.889	0.81	0.798	0.743	0.656	0.644	0.632	0.842	0.924	0.789	0.837	0.783	0.695	0.741	0.648	0.647	0.683
HCC-44	1.09	1.05	0.971	1.04	1.16	0.661	0.663	0.479	0.579	0.459	0.766	0.82	0.824	0.782	0.776					
HCC-78	0.425	0.523	0.513	0.402	0.459	0.228	0.196	0.215	0.182	0.194	0.317	0.308	0.375	0.305	0.33	0.402	0.264	0.278	0.33	0.363
